In ChEMBL document CHEMBL4414664, “An Effective Strategy for Identification of Highly Unstable Bacillaenes” (2019):
Activity calls are given as the source filed them. The rule behind the calls is not given here.

Tests used:
Enterococcus faecium [1] = assay: Antibacterial activity against Enterococcus faecium CCARM 5203 assessed as inhibition zone at 10 mg/ml incubated for 18 hrs by radial diffusion assay; type: functional, organism-based
Escherichia coli = assay: Antibacterial activity against Escherichia coli CCARM 1009 assessed as inhibition zone at 10 mg/ml incubated for 18 hrs by radial diffusion assay; type: functional, organism-based
Salmonella typhimurium = assay: Antibacterial activity against Salmonella typhimurium CCARM 8250 assessed as inhibition zone at 10 mg/ml incubated for 18 hrs by radial diffusion assay; type: functional, organism-based; settings: Salmonella enterica subsp. enterica serovar Typhimurium
Enterococcus faecium [2] = assay: Antibacterial activity against Enterococcus faecium CCARM 5203 assessed as reduction in bacterial growth at 12.5 ug/ml incubated for 18 hrs by serial dilution method relative to control; type: functional

C/C(=C/C=C/C=C/C(C)C(=O)O[C@@H]1O[C@H](CO)[C@@H](O)[C@H](O)[C@H]1O)NC(=O)CC(O)\C(C)=C/C=C\C=C(C)\C=C\C=C/C=C/CNC(=O)C(O)CC(C)C (some centres undefined)
inhibition zone (IZ) (Enterococcus faecium [1]): inactive
inhibition zone (IZ) (Escherichia coli): inactive
inhibition zone (IZ) (Salmonella typhimurium): inactive

C/C(=C/C=C/C=C/C(C)C(=O)O)NC(=O)CC(O)\C(C)=C/C=C\C=C(C)\C=C\C=C/CCCNC(=O)C(O)CC(C)C (centres undefined)
growth inhibition (GI) (Enterococcus faecium [2]): Active

C/C(=C/C=C/C=C/C(C)C(=O)O)NC(=O)CC(O)\C(C)=C/C=C\C=C(C)\C=C\C=C/C=C/CNC(=O)C(O)CC(C)C (centres undefined)
inhibition zone (IZ) (Enterococcus faecium [1]): Active
inhibition zone (IZ) (Escherichia coli): Active
inhibition zone (IZ) (Salmonella typhimurium): Active
inhibition of growth at 12.5 µg/mL (Enterococcus faecium [2]; CCARM 5203, 18 h, read-out: GI): > 80%

C/C(=C/C=C/C=C/C(C)C(=O)O)NC(=O)CC(O)\C(C)=C/C=C\C=C(C)\C=C\C=C\CCCNC(=O)C(CC(C)C)O[C@@H]1O[C@H](CO)[C@@H](O)[C@H](O)[C@H]1O (some centres undefined)
inhibition zone (IZ) (Enterococcus faecium [1]): inactive
inhibition zone (IZ) (Escherichia coli): inactive
inhibition zone (IZ) (Salmonella typhimurium): inactive

C/C(=C/C=C/C=C/C(C)C(=O)O)NC(=O)CC(O)\C(C)=C/C=C\C=C(C)\C=C\C=C/CCCNC(=O)C(CC(C)C)O[C@@H]1O[C@H](CO)[C@@H](O)[C@H](O)[C@H]1O (some centres undefined)
inhibition zone (IZ) (Enterococcus faecium [1]): inactive
inhibition zone (IZ) (Escherichia coli): inactive
inhibition zone (IZ) (Salmonella typhimurium): inactive
growth inhibition (GI) (Enterococcus faecium [2]): inactive

C/C(=C/C=C/C=C/C(C)C(=O)O)NC(=O)CC(O)\C(C)=C/C=C\C=C(C)\C=C\C=C/C=C/CNC(=O)C(CC(C)C)O[C@@H]1O[C@H](CO)[C@@H](O)[C@H](O)[C@H]1O (some centres undefined)
inhibition zone (IZ) (Enterococcus faecium [1]): inactive
inhibition zone (IZ) (Escherichia coli): inactive
inhibition zone (IZ) (Salmonella typhimurium): inactive
growth inhibition (GI) (Enterococcus faecium [2]): inactive
